Usually IC50 stands for the concentration needed to halve the response being measured. A lower IC50 goes with greater potency in that assay.

From patent US11339161B2, “Triazolo pyridines as modulators of gamma-secretase” (Boehringer Ingelheim International GmbH, priority 2017, dated 2022) come the findings set out here.

The structures appear in SMILES notation. Like-named read-outs stand apart in the source and are kept apart here. Where only a bound is given, the exact number is not on record here.

The test system of one test is Aβ total. Kind of test: Aβ total levels in H4 neuroglioma cells stably expressing human APP695 (MSD electrochemiluminescence). To be noted: selectivity ratio vs. Aβtotal, Table 4a. The class given is cell-based. The protocol:
(§1) Cells were plated out to near confluency. The compounds to be tested were received as 10 mM stocks in 100% DMSO. A dilution series was initially generated in 100% DMSO and then diluted 200-fold in cell culture media such that the tested concentration range was 30 μM to 0.1 nM and the final DMSO concentration was 0.5%. The diluted compounds were incubated with the cells for 22 hours in an incubator at 37° C. and 5% CO2. Aβ42 levels were measured post-incubation from the supernatant of the cells using an Aβ42 specific electrochemiluminescence assay provided by Meso Scale Discovery (Catalog #L21CA-1). The measurement of Aβ42 levels were performed according to the manufacturer's protocol.
Aβ total levels were likewise determined using a specific electrochemiluminescence assay provided by Meso Scale Discovery (Catalog #L21ZA-1) according to the manufacturer's protocol.

The test system of the next test is Aβ42 production. Kind of test: Inhibition of Aβ42 production in H4 neuroglioma cells stably expressing human APP695 (MSD electrochemiluminescence). The class given is cell-based. To be noted: H4 neuroglioma cells expressing human APP695, 22 hours incubation; Table 4a. The protocol:
as §1

A further test deals with KDR (VEGFR2) (Homo sapiens, UniProt P35968). Kind of test: Z'-LYTE SelectScreen biochemical kinase assay KDR (VEGFR2). The text has this: (§2) Thermo Fisher Scientific SelectScreen™ Biochemical Kinase Profiling Service Z′-LYTE™ Screening Protocol and Assay Conditions Assay Theory
Sequence of KDR (VEGFR2) (P35968 20-1356): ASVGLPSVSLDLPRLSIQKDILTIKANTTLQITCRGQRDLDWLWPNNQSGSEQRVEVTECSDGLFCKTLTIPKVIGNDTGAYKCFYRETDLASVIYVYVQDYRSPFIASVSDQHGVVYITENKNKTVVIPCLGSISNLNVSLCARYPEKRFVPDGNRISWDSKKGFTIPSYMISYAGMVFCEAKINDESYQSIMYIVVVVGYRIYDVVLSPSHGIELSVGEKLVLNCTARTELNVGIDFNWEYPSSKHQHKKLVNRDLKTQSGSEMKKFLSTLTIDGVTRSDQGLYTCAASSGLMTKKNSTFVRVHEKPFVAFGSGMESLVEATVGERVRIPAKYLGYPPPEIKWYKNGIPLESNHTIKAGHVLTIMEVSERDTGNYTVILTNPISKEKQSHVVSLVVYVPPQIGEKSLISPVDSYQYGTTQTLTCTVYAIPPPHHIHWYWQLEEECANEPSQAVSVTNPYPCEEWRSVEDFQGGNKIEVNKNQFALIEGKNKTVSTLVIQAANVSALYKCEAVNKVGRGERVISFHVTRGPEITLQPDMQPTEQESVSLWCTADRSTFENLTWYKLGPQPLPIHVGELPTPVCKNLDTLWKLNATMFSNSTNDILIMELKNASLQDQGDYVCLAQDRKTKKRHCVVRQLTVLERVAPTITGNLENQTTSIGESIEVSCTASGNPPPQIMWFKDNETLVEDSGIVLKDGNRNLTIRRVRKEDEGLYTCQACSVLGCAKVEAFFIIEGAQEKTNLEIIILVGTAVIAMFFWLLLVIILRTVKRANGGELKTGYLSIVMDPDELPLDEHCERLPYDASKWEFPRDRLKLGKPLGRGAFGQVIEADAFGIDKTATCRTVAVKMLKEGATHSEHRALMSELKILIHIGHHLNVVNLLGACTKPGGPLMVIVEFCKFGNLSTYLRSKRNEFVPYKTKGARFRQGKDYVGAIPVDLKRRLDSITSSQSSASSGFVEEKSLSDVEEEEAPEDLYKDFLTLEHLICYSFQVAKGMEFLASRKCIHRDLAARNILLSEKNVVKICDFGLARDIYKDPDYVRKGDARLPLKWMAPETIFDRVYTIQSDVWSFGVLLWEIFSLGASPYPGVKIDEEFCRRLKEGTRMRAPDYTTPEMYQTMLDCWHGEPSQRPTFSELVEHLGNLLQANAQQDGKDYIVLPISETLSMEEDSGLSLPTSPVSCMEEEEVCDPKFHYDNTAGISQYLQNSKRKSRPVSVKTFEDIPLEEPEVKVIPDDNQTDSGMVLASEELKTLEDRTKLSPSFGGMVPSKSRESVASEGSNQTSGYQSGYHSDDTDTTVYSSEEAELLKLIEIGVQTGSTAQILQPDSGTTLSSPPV
(§3) The […] biochemical assay employs a fluorescence-based, coupled-enzyme format and is based on the differential sensitivity of phosphorylated and non-phosphorylated peptides to proteolytic cleavage. The peptide substrate is labeled with two fluorophores—one at each end—that make up a FRET pair. In the primary reaction, the kinase transfers the gamma-phosphate of ATP to a single tyrosine, serine or threonine residue in a synthetic FRET-peptide. In the secondary reaction, a site-specific protease recognizes and cleaves non-phosphorylated FRET-peptides. Phosphorylation of FRET-peptides suppresses cleavage by the Development Reagent. Cleavage disrupts FRET between the donor (i.e., coumarin) and acceptor (i.e., fluorescein) fluorophores on the FRET-peptide, whereas uncleaved, phosphorylated FRET-peptides maintain FRET. A ratiometric method, which calculates the ratio (Emission Ratio=Coumarin emission (445 nm)/Fluorescein emission (520 nm)) of donor emission to acceptor emission after excitation of the donor fluorophore at 400 nm, is used to quantitate reaction progress, as shown in the equation below. A significant benefit of this ratiometric method for quantitating reaction progress is the elimination of well-to-well variations in FRET-peptide concentration and signal intensities. As a result, the assay yields very high Z′-factor values (>0.7) at a low percent phosphorylation. Both cleaved and uncleaved FRET-peptides contribute to the fluorescence signals and therefore to the Emission Ratio. The extent of phosphorylation of the FRET-peptide can be calculated from the Emission Ratio. The Emission Ratio will remain low if the FRET-peptide is phosphorylated (i.e., no kinase inhibition) and will be high if the FRET-peptide is non-phosphorylated (i.e., kinase inhibition).
(§4) The Test Compounds are screened in 1% DMSO (final) in the well. For 10 point titrations, 3-fold serial dilutions are conducted from the starting concentration of the customer's choosing.
(§5) All Peptide/Kinase Mixtures are diluted to a 2× working concentration in the appropriate Kinase Buffer (see section Kinase Specific Assay Conditions for a complete description).
(§6) All ATP Solutions are diluted to a 4× working concentration in Kinase Buffer (50 mM HEPES pH 7.5, 0.01% BRIJ-35, 10 mM MgCl2, 1 mM EGTA). ATP Km apparent is previously determined using a Z″-LYTE assay.
(§7) The Development Reagent is diluted in Development Buffer (see section Kinase-Specific Assay Conditions—Direct and Cascade for a complete description).
(§8) Bar-coded Corning, low volume NBS, black 384-well plate (Corning Cat. #4514) • 1. 100 nL—100× Test Compound in 100% DMSO • 2. 2.4 μL—Kinase buffer • 3. 5 μL—2× Peptide/Kinase Mixture • 4. 2.5 μL—4×ATP Solution • 5. 30—second plate shake • 6. 60—minute Kinase Reaction incubation at room temperature • 7. 5 μL—Development Reagent Solution • 8. 30—second plate shake • 9. 60—minute Development Reaction incubation at room temperature • 10. Read on fluorescence plate reader and analyze the data Z′-LYTE Assay Controls
(§9) SelectScreen Kinase Profiling Service uses XLfit from IDBS. The dose response curve is curve fit to model number 205 (sigmoidal dose-response model).
The 2×KDR (VEGFR2)/Tyr 01 mixture is prepared in 50 mM HEPES pH 7.5, 0.01% BRIJ-35, 10 mM MgCl2, 1 mM EGTA. The final 10 μL Kinase Reaction consists of 1-30 ng KDR (VEGFR2) and 2 μM Tyr 01 in 50 mM HEPES pH 7.5, 0.01% BRIJ-35, 10 mM MgCl2, 1 mM EGTA. After the 1 hour Kinase Reaction incubation, 5 μL of a 1:256 dilution of Development Reagent B is added.

For the next test, the target named is CDK5/p35 (Homo sapiens, UniProt Q00535). The test can be described thus: Z'-LYTE SelectScreen biochemical kinase assay CDK5/p35.
Sequence of CDK5/p35 (Q00535 whole entry): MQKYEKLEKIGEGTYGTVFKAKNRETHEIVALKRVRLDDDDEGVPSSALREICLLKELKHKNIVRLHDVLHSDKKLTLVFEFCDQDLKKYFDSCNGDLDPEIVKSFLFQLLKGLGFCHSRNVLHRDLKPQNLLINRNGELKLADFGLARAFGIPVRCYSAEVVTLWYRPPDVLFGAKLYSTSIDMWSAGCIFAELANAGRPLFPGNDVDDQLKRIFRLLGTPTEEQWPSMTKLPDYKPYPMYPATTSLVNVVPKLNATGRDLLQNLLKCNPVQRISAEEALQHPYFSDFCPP
Sequence of CDK5/p35 (Q15078 whole entry partner): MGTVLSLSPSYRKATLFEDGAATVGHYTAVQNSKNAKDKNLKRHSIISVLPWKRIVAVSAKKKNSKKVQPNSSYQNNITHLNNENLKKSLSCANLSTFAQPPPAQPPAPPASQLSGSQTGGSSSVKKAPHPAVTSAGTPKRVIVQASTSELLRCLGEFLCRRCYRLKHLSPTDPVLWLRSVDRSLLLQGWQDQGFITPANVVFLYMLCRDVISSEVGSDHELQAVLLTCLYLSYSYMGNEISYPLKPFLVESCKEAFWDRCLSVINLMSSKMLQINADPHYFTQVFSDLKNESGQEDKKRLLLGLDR
Text: as §2, §3, §4, §5, §6, §7, §8, §9
The 2×CDK5/p35/Ser/Thr 12 mixture is prepared in 50 mM HEPES pH 7.5, 0.01% BRIJ-35, 10 mM MgCl2, 1 mM EGTA. The final 10 μL Kinase Reaction consists of 0.14-1.3 ng CDK5/p35 and 2 μM Ser/Thr 12 in 50 mM HEPES pH 7.5, 0.01% BRIJ-35, 10 mM MgCl2, 1 mM EGTA. After the 1 hour Kinase Reaction incubation, 5 μL of a 1:4096 dilution of Development Reagent A is added.

[1] abbreviates: 10 μmolar compound concentration, ATP at Km app, read-out: KDR (VEGFR2) inhibition.
The mark [2] stands for this setting: read-out: % Inhibition mean KDR (VEGFR2).
Setting [3] is: 10 μmolar compound concentration, ATP at Km app, read-out: CDK5/p35 inhibition.
[4] abbreviates: read-out: % Inhibition mean CDK5/p35.

As for `Cc1cc(F)ccc1-c1cccn2nc(NC3CCc4c(cnn4CC(C)C)C3)nc12` (centres unmarked) [Example 45, [8-(4-fluoro-2-methyl-phenyl)-[1,2,4]triazolo[1,5-a]pyridine-2-yl]-(1-isobutyl-4,5,6,7-tetrahydro-1H-indazol-5-yl)-amine], the “Ratio AβTotal IC50/Aβ42 IC50” value with Aβ total was 4. In addition, 3.4 µM corresponded to half-maximal inhibition in the test on Aβ42 production (IC50). Further, the inhibition at 10 µM was less than 40% at KDR (VEGFR2) (setting [1]), -10% on KDR (VEGFR2) (setting [2]), less than 40% on CDK5/p35 (setting [3]) and 8% at CDK5/p35 (setting [4]).
For the compound `CCn1ncc2c1CC[C@H](Nc1nc3c(-c4ccc(F)c(Cl)c4)cccn3n1)C2` [Example S-61, (S)-[8-(3-Chloro-4-fluoro-phenyl)-[1,2,4]triazolo[1,5-a]pyridine-2-yl]-(1-ethyl-4,5,6,7-tetrahydro-1H-indazol-5-yl)-amine], in the test on Aβ total, the “Ratio AβTotal IC50/Aβ42 IC50” value was 42. This compound also yielded a half-maximal inhibitory concentration (IC50) in the test on Aβ42 production of 0.194 µM. The inhibition at 10 µM is less than 40% at KDR (VEGFR2) (setting [1]), -15% on KDR (VEGFR2) (setting [2]), less than 40% at CDK5/p35 (setting [3]) and 10% at CDK5/p35 (setting [4]).
As for `CCn1ncc2c1CCC(Nc1nc3c(-c4cccc(Cl)c4)cccn3n1)C2` (centres unmarked) [Example 59, [8-(3-Chloro-phenyl)-[1,2,4]triazolo[1,5-a]pyridine-2-yl]-(1-ethyl-4,5,6,7-tetrahydro-1H-indazol-5-yl)-amine], the “Ratio AβTotal IC50/Aβ42 IC50” value in the test on Aβ total stood at 49. The same compound came in with a half-maximal inhibitory concentration (IC50) in the test with Aβ42 production of 0.04 µM. For the same compound, the inhibition at 10 µM was less than 40% on KDR (VEGFR2) (setting [1]), -8% at KDR (VEGFR2) (setting [2]), less than 40% at CDK5/p35 (setting [3]) and 28% on CDK5/p35 (setting [4]).
As to `Cc1cc(F)ccc1-c1cccn2nc(Nc3ccc4c(cnn4C)c3)nc12` [Example 9, [8-(4-fluoro-2-methyl-phenyl)-[1,2,4]triazolo[1,5-a]pyridine-2-yl]-(1-methyl-1H-indazol-5-yl)-amine], the “Ratio AβTotal IC50/Aβ42 IC50” value with Aβ total is listed as 3. Also, in the test on Aβ42 production, it took 1.26 µM to reach half-maximal inhibition (IC50). Further, the inhibition at 10 µM on KDR (VEGFR2) (setting [1]) is less than 40%; on KDR (VEGFR2) (setting [2]), 30%; on CDK5/p35 (setting [3]), 40 to 80%; on CDK5/p35 (setting [4]) it was 42%.
On to `CCn1ncc2c1CCC(Nc1nc3c(-c4ccccc4C)cccn3n1)C2` (centres unmarked) [Example 56, (1-Ethyl-4,5,6,7-tetrahydro-1H-indazol-5-yl)-[8-(2-methyl-phenyl)-[1,2,4]triazolo[1,5-a]pyridine-2-yl]-amine], for which the “Ratio AβTotal IC50/Aβ42 IC50” value in the test with Aβ total came out at 49. This compound also yielded an IC50 in the test with Aβ42 production of 0.16 µM. In addition, the inhibition at 10 µM on KDR (VEGFR2) (setting [1]) is less than 40%; at KDR (VEGFR2) (setting [2]), 6%; on CDK5/p35 (setting [3]), 40 to 80%; on CDK5/p35 (setting [4]), 52%.
For the compound `CCn1ncc2c1CCC(Nc1nc3c(-c4cncc(Cl)c4)cccn3n1)C2` (centres unmarked) [Example 73, [8-(5-Chloro-pyridin-3-yl)-[1,2,4]triazolo[1,5-a]pyridine-2-yl]-(1-ethyl-4,5,6,7-tetrahydro-1H-indazol-5-yl)-amine], the “Ratio AβTotal IC50/Aβ42 IC50” value in the test on Aβ total stood at 420. Moreover, half-maximal inhibition in the test with Aβ42 production (IC50) required 0.04 µM. Besides, the inhibition at 10 µM on KDR (VEGFR2) (setting [1]) was less than 40%; at KDR (VEGFR2) (setting [2]), 8%; at CDK5/p35 (setting [3]), 40 to 80%; at CDK5/p35 (setting [4]), 56%.
In the test on Aβ42 production, `CCn1ncc2c1CC[C@@H](Nc1nc3c(-c4ccc(F)cc4C)cccn3n1)C2` [Example R-42, (R)-(1-Ethyl-4,5,6,7-tetrahydro-1H-indazol-5-yl)-[8-(4-fluoro-2-methyl-phenyl)-[1,2,4]triazolo[1,5-a]pyridine-2-yl]-amine] displayed a half-inhibitory concentration (IC50) of 0.04 µM. The inhibition at 10 µM on KDR (VEGFR2) (setting [1]) was less than 40%; at KDR (VEGFR2) (setting [2]) it was 10%; at CDK5/p35 (setting [3]), less than 40%; on CDK5/p35 (setting [4]) it was 39%.
